Experimental findings from patent US8835469B2 (Cadila Healthcare Limited, priority 2009, dated 2014) are described below.

What is called EC50 is the concentration that produces a half-maximal response. Lower therefore signals a more potent agent.

The subject of experiment [1] is Male C57 mice. Put plainly: Oral glucose tolerance test (OGTT), overnight fasted. To be noted: for % change in glucose levels Vs Control: treated at −30 min, oral glucose load 3 g/kg at 0 min; for % change in glucose levels Vs Control, Mean: Mean over the time points, oral glucose load 3 g/kg. Format: in vivo. On the procedure: Effect of Glucokinase Activators (GKAs) of the Present Invention on Glucose Reduction Determined by Oral Glucose Tolerence Test (OGTT):
Male C57 mice, aged 8-10 weeks were fasted overnight and subjected to the treatment of selected GK activator at time denoted as −30 min. At time 0 min, mice were given oral glucose load of 3 g/kg, and the glucose excursion was observed upto 120 min. The percentage change against the change in glucose levels of control are mentioned in the table 2.

In experiment [2] the target is T1, glucokinase (GK) enzyme (Homo sapiens, UniProt P35557).
T1 sequence (P35557 1-465): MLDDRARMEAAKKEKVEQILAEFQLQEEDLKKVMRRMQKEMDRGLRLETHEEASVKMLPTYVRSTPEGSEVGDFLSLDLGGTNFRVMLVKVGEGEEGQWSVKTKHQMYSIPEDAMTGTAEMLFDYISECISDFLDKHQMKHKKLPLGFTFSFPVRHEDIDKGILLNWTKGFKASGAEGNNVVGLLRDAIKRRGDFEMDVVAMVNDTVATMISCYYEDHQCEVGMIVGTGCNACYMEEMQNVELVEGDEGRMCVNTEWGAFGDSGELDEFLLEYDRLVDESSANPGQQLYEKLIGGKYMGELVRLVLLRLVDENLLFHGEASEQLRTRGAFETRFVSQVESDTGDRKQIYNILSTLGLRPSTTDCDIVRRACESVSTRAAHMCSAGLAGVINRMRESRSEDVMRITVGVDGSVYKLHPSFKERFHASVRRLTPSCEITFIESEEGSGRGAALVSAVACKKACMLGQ
Briefly: In-vitro glucokinase (GK) activation assay (coupled with glucose-6-phosphate dehydrogenase, absorbance at 340). The experiment is classed as biochemical. The following applies: glucose 2.5 mM; for activity at 0.1 µM / activity at 1 µM / activity at 5 µM / activity at 10 µM: read-out: % of GK activity wrt DMSO; for EC50: GK enzyme 0.2 units, ATP 1 mM. Here is the method: The compound of the invention was incubated with glucokinase (GK) enzyme (0.2 units) for 10 minutes in assay buffer at 26° C. After incubation, addition of glucose-6-phosphate dehydrogenase (2.5 units), ATP (1 mM) and glucose (2.5 mM). Absorbance is measured at 340 nm for 15 minutes with 10 second interval using UV transparent plate in kinetic mode on Spectramax-190 at 30° C.

Regarding `Cc1csc(NC(=O)c2cc(Oc3ccc(-c4nnc(C)o4)cc3)cc(OC3CCN(C)C3=O)c2)n1` (centres unmarked) [Example 13, 3-(4-(5-Methyl-1,3,4-oxadiazol-2-yl)phenoxy)-5-(1-methyl-2-oxopyrrolidin-3-yloxy)-N-(4-methylthiazol-2-yl)benzamide], the “% change in glucose levels Vs Control” value in experiment [1] (0 min Vs −30 min) is listed as −38.7 ± 3.5%; in experiment [1] (30 min Vs −30 min) it was −34.5 ± 9.3%; in experiment [1] (60 min Vs −30 min), −48.2 ± 7.5%; in experiment [1] (120 min Vs −30 min), −60.5 ± 4.5%. Besides, the “% change in glucose levels Vs Control, Mean” value (“% change … Mean” for short) in experiment [1] is −45.5%. For the same molecule, the activity at 0.1 µM in experiment [2] (0.1 uM compound) was determined as 234%. In addition, in experiment [2] (1 uM compound), the activity at 1 µM was determined as 302%. In addition, the activity at 5 µM in experiment [2] (5 uM compound) was determined as 320%. Besides, the activity at 10 µM in experiment [2] (10 uM compound) was found to be 318%. The molecule further displayed an EC50 in experiment [2] of 74 nM.

Consider `Cc1nnc(-c2ccc(Oc3cc(OC4CCN(C)C4=O)cc(C(=O)Nc4nc(CC(=O)O)cs4)c3)cc2)o1` (centres unmarked) [Example 4, 2-(2-(3-(4-(5-Methyl-1,3,4-oxadiazol-2-yl)phenoxy)-5-((1-methyl-2-oxopyrrolidin-3-yl)oxy)benzamido)thiazol-4-yl)acetic acid], for which the “% change in glucose levels Vs Control” value was −23.3 ± 3.1% in experiment [1] (0 min Vs −30 min), −22.1 ± 6.1% in experiment [1] (30 min Vs −30 min), −21.8 ± 5.9% in experiment [1] (60 min Vs −30 min) and −16.7 ± 5.9% in experiment [1] (120 min Vs −30 min). In addition, in experiment [1], the “% change … Mean” value is −21.0%. In addition, the activity at 0.1 µM in experiment [2] (0.1 uM compound) came to 148%. The activity at 1 µM in experiment [2] (1 uM compound) turned out to be 273%. Also, the activity at 5 µM in experiment [2] (5 uM compound) stood at 330%. In addition, the activity at 10 µM in experiment [2] (10 uM compound) was found to be 322%. In addition, the EC50 in experiment [2] was 320 nM.

Consider `Cc1nnc(-c2ccc(Oc3cc(O[C@H]4CCN(C)C4=O)cc(C(=O)Nc4ncc(C#N)s4)c3)cc2)o1` [Example 69, (S)-(5-cyanothiazol-2-yl)-3-(4-(5-methyl-1,3,4-oxadiazol-2-yl)phenoxy)-5-((1-methyl-2-oxopyrrolidin-3-yl)oxy)benzamide], for which the “% change in glucose levels Vs Control” value in experiment [1] (0 min Vs −30 min) is −58.6 ± 5.6%; in experiment [1] (30 min Vs −30 min), −91.2 ± 1.3%; in experiment [1] (60 min Vs −30 min), −84.4 ± 0.9%; in experiment [1] (120 min Vs −30 min) it was −72.9 ± 5.6%. Further, in experiment [1], the “% change … Mean” value was −75.2%. In addition, the “% of GK activity wrt DMSO” value in experiment [2] (0.1 uM compound) came to 116.7%; in experiment [2] (1 uM compound), 170.1%; in experiment [2] (5 uM compound), 249.2%; in experiment [2] (10 uM compound), 255.3%.
